Assay results taken from ChEMBL document CHEMBL4002566, “S-substituted 3,5-dinitrophenyl 1,3,4-oxadiazole-2-thiols and tetrazole-5-thiols as highly efficient antitubercular agents” (Eur J Med Chem, 2017).
Converted amounts (≈) assume the structure as drawn.

What was measured:
Assay type in all cases: functional
Candida albicans = assay: Antifungal activity against Candida albicans ATCC 44859 after 24 hrs by broth microdilution method; details: ATCC 44859, 24 h
Trichosporon asahii = assay: Antifungal activity against Trichosporon asahii 1188 after 24 hrs by broth microdilution method; details: Trichosporon asahii, 1188, 24 h
Pichia kudriavzevii = assay: Antifungal activity against Candida krusei E28 after 24 hrs by broth microdilution method; details: E28, 24 h
Candida tropicalis = assay: Antifungal activity against Candida tropicalis 156 after 24 hrs by broth microdilution method; details: Candida tropicalis, 156, 24 h
[1] = system: Trichophyton mentagrophytes; assay: Antifungal activity against Trichophyton mentagrophytes 445 after 72 hrs by broth microdilution method; details: Trichophyton mentagrophytes, 445, 72 h
Aspergillus fumigatus = assay: Antifungal activity against Aspergillus fumigatus 231 after 24 hrs by broth microdilution method; details: Aspergillus fumigatus, 231, 24 h
Lichtheimia corymbifera = assay: Antifungal activity against Absidia corymbifera 272 after 24 hrs by broth microdilution method; details: Lichtheimia corymbifera, 272, 24 h
Nakaseomyces glabratus = assay: Antifungal activity against Candida glabrata 20/I after 24 hrs by broth microdilution method
Enterococcus sp. = assay: Antibacterial activity against Enterococcus sp. HK14365/08 after 24 hrs by broth microdilution method; details: HK14365/08, 24 h
[2] = system: Staphylococcus epidermidis; assay: Antibacterial activity against Staphylococcus epidermidis HK6996/08 after 24 hrs by broth microdilution method; details: HK6996/08, 24 h
Staphylococcus aureus [3] = assay: Antibacterial activity against methicillin-resistant Staphylococcus aureus HK5996/08 after 24 hrs by broth microdilution method; details: HK5996/08, 24 h
Staphylococcus aureus [4] = assay: Antibacterial activity against Staphylococcus aureus ATCC 6538 after 24 hrs by broth microdilution method; details: ATCC 6538, 24 h
[5] = system: Mycobacterium tuberculosis; assay: Antimycobacterial activity against Mycobacterium tuberculosis CNCTC My 331/88 after 21 days by micromethod; details: CNCTC My 331/88, 504 h
Mycobacterium avium [6] = assay: Antimycobacterial activity against Mycobacterium avium CNCTC My 330/88 after 21 days by micromethod; details: CNCTC My 330/88, 504 h
Mycobacterium kansasii [7] = assay: Antimycobacterial activity against Mycobacterium kansasii CNCTC My 235/80 after 14 days by micromethod; details: CNCTC My 235/80, 336 h
Mycobacterium kansasii [8] = assay: Antimycobacterial activity against Mycobacterium kansasii CNCTC My 235/80 after 7 days by micromethod; details: CNCTC My 235/80, 168 h
Mycobacterium kansasii [9] = assay: Antimycobacterial activity against Mycobacterium kansasii 6509/96 clinical isolate after 21 days by micromethod; details: 6509/96, 504 h
Mycobacterium kansasii [10] = assay: Antimycobacterial activity against Mycobacterium kansasii 6509/96 clinical isolate after 7 days by micromethod; details: 6509/96, 168 h
Mycobacterium kansasii [11] = assay: Antimycobacterial activity against Mycobacterium kansasii CNCTC My 235/80 after 21 days by micromethod; details: CNCTC My 235/80, 504 h
[12] = system: Mycobacterium tuberculosis; assay: Antimycobacterial activity against Mycobacterium tuberculosis CNCTC My 331/88 after 14 days by micromethod; details: CNCTC My 331/88, 336 h
Mycobacterium kansasii [13] = assay: Antimycobacterial activity against Mycobacterium kansasii 6509/96 clinical isolate after 14 days by micromethod; details: 6509/96, 336 h
Mycobacterium avium [14] = assay: Antimycobacterial activity against Mycobacterium avium CNCTC My 330/88 after 14 days by micromethod; details: CNCTC My 330/88, 336 h

| SMILES | MIC (Candida albicans) [µM] | MIC (Trichosporon asahii) [µM] | MIC (Pichia kudriavzevii) [µM] | MIC (Candida tropicalis) [µM] | MIC [1] [µM] | MIC (Aspergillus fumigatus) [µM] | MIC (Lichtheimia corymbifera) [µM] | MIC [5] [µM] | MIC (Mycobacterium avium [6]) [µM] | MIC (Mycobacterium kansasii [7]) [µM] | MIC (Mycobacterium kansasii [8]) [µM] | MIC (Mycobacterium kansasii [9]) [µM] | MIC (Mycobacterium kansasii [10]) [µM] | MIC (Mycobacterium kansasii [11]) [µM] | MIC [12] [µM] | MIC (Mycobacterium kansasii [13]) [µM] | MIC (Mycobacterium avium [14]) [µM] | also measured |
| --- | --- | --- | --- | --- | --- | --- | --- | --- | --- | --- | --- | --- | --- | --- | --- | --- | --- | --- |
| OC(Cn1cncn1)(Cn1cncn1)c1ccc(F)cc1F [FLUCONAZOLE] | 0.82 (≈ 0.251 µg/mL) | 210 (≈ 64.3 µg/mL) | 105 (≈ 32.2 µg/mL) | 1.6 (≈ 0.49 µg/mL) | 105 (≈ 32.2 µg/mL) | > 500 | > 500 |  |  |  |  |  |  |  |  |  |  |  |
| C[C@@H]1[C@H](O)[C@@H](C)/C=C/C=C/C=C/C=C/C=C/C=C/C=C/[C@H](O[C@@H]2O[C@H](C)[C@@H](O)[C@H](N)[C@@H]2O)C[C@@H]2O[C@](O)(C[C@@H](O)C[C@@H](O)[C@H](O)CC[C@@H](O)C[C@@H](O)CC(=O)O[C@H]1C)C[C@H](O)[C@H]2C(=O)O [AMPHOTERICIN B] | 0.54 (≈ 0.499 µg/mL) | 0.27 (≈ 0.25 µg/mL) | 1 (≈ 0.924 µg/mL) | 0.54 (≈ 0.499 µg/mL) | 0.54 (≈ 0.499 µg/mL) | 0.54 (≈ 0.499 µg/mL) | 1 (≈ 0.924 µg/mL) |  |  |  |  |  |  |  |  |  |  | MIC (Nakaseomyces glabratus): 0.54 µM (≈ 0.499 µg/mL) |
| CN[C@H](CC(C)C)C(=O)N[C@H]1C(=O)N[C@@H](CC(N)=O)C(=O)N[C@H]2C(=O)N[C@H]3C(=O)N[C@H](C(=O)N[C@H](C(=O)O)c4cc(O)cc(O)c4-c4cc3ccc4O)[C@H](O)c3ccc(c(Cl)c3)Oc3cc2cc(c3O[C@@H]2O[C@H](CO)[C@@H](O)[C@H](O)[C@H]2O[C@H]2C[C@](C)(N)[C@H](O)[C@H](C)O2)Oc2ccc(cc2Cl)[C@H]1O [VANCOMYCIN] |  |  |  |  |  |  |  |  |  |  |  |  |  |  |  |  |  | MIC (Enterococcus sp.): 0.7 µM (≈ 1.01 µg/mL); MIC [2]: 0.35 µM (≈ 0.507 µg/mL); MIC (Staphylococcus aureus [3]): 0.35 µM (≈ 0.507 µg/mL); MIC (Staphylococcus aureus [4]): 0.35 µM (≈ 0.507 µg/mL) |
| O=[N+]([O-])c1cc(-c2nnc(SCc3ccc(Cl)cc3Cl)o2)cc([N+](=O)[O-])c1 |  |  |  |  |  |  |  | 0.03 (≈ 0.0128 µg/mL) | 250 (≈ 107 µg/mL) | 0.06 (≈ 0.0256 µg/mL) | 0.03 (≈ 0.0128 µg/mL) | 0.03 (≈ 0.0128 µg/mL) | 0.03 (≈ 0.0128 µg/mL) | 0.06 (≈ 0.0256 µg/mL) | 0.03 (≈ 0.0128 µg/mL) | 0.03 (≈ 0.0128 µg/mL) | 250 (≈ 107 µg/mL) |  |
| COc1ccc(CSc2nnc(-c3cc(N)cc([N+](=O)[O-])c3)o2)cc1 |  |  |  |  |  |  |  | 125 (≈ 44.8 µg/mL) | 250 (≈ 89.6 µg/mL) | 250 (≈ 89.6 µg/mL) | 250 (≈ 89.6 µg/mL) | 250 (≈ 89.6 µg/mL) | 250 (≈ 89.6 µg/mL) | 250 (≈ 89.6 µg/mL) | 125 (≈ 44.8 µg/mL) | 250 (≈ 89.6 µg/mL) | 250 (≈ 89.6 µg/mL) |  |
